From patent US20150010928A1, “MEANS AND METHODS FOR ASSESSING AN ENDOCRINE DISEASE OR DISORDER” (priority 2012, published 2015)
Marks after values point to notes of the source that are not given here.

System: male rats
Test: Plasma metabolite profiling (GC-MS, LC-MS, SPE-LC-MS) in male rats dosed once daily over 28 days (OECD 407)
Format: in vivo, rat
Settings: high dose; for Mannose: Table 15c
In short: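 Polar and lipid fractions profiled by GC-MS and LC-MS/MRM, steroids by online SPE-LC-MS; pool-normalized data compared to controls by Welch test as treatment ratios and p-values.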

C[C@]12C=CC3=C4CCC(=O)C=C4CCC3C1CC[C@@H]2O (stereo partly drawn) [Trenbolone]
Mannose (m7, male rats): 1.35 * | 3,4-Dihydroxyphenylacetic acid (DOPAC) (m7, male rats, Table 16): 1.08 | 3,4-Dihydroxyphenylglycol (DOPEG) (m7, male rats, Table 16): 1.12 | Androstenedione (m7, male rats, Table 16): 0.09 * | Citrate (m7, male rats, Table 16): 0.89 * | Glycerol, polar fraction (m7, male rats, Table 16): 0.66 * | Histamine (m7, male rats, Table 16): 1.35 | Ketoleucine (m7, male rats, Table 16): 0.93 | Lactate (m7, male rats, Table 16): 0.68 * | Metanephrine (m7, male rats, Table 16): 0.86 | Pantothenic acid (m7, male rats, Table 16): 0.65 * | Phosphatidylcholine (C18:1,C18:2) (m7, male rats, Table 16): 0.76 * | Phosphatidylcholine No 04 (m7, male rats, Table 16): 0.44 * | TAG (C18:1,C18:2) (m7, male rats, Table 16): 0.77 * | Testosterone (m7, male rats, Table 16): 0.1 * | Tyrosine (m7, male rats, Table 16): 0.93 * | 3,4-Dihydroxyphenylacetic acid (DOPAC) (m7, male rats, Table 15d): 1.08 | 18-Hydroxy-11-deoxycorticosterone (m7, male rats, Table 15d): 0.4 | Glycerol phosphate, lipid fraction (m7, male rats, Table 15d): 0.26 * | Homovanillic acid (HVA) (m7, male rats, Table 15d): 0.6 * | Kynurenic acid (m7, male rats, Table 15d): 0.66 * | Lysophosphatidylcholine (C18:1) (m7, male rats, Table 15d): 0.89 * | Lysophosphatidylethanolamine (C22:5) (m7, male rats, Table 15d): 0.75 * | Phosphate, lipid fraction (m7, male rats, Table 15d): 0.47 * | Phosphatidylcholine (C18:0,C18:1) (m7, male rats, Table 15d): 0.62 * | Sphingomyelin (d18:1, C16:0) (m7, male rats, Table 15d): 0.23 * | Sphingomyelin (d18:1,C23:0) (m7, male rats, Table 15d): 0.25 * | Sphingomyelin (d18:1,C24:0) (m7, male rats, Table 15d): 0.37 * | Sphingomyelin (d18:2,C18:0) (m7, male rats, Table 15d): 0.24 * | TAG No 02 (m7, male rats, Table 15d): 0.57 * | myo-Inositol, lipid fraction (m7, male rats, Table 15d): 0.24 * | Cholesterol (m7, Table 14b): 0.22 | Choline plasmalogen No 02 (m7, Table 14b): 0.44 | Lignoceric acid (C24:0) (m7, Table 14b): 0.14 | Sphingomyelin (d18:1, C16:0) (m7, Table 14b): 0.23 | Sphingomyelin (d18:2, C16:0) (m7, Table 14b): 0.22 | erythro-Sphingosine (d18:1) (m7, Table 14b): 0.1 | Mannose (m14, male rats): 1.4 * | 3,4-Dihydroxyphenylacetic acid (DOPAC) (m14, male rats, Table 16): 0.75 * | 3,4-Dihydroxyphenylglycol (DOPEG) (m14, male rats, Table 16): 0.86 * | Androstenedione (m14, male rats, Table 16): 0.02 * | Citrate (m14, male rats, Table 16): 0.89 * | Glycerol, polar fraction (m14, male rats, Table 16): 0.51 * | Histamine (m14, male rats, Table 16): 1.6 | Ketoleucine (m14, male rats, Table 16): 0.85 * | Lactate (m14, male rats, Table 16): 0.94 | Metanephrine (m14, male rats, Table 16): 0.48 * | Pantothenic acid (m14, male rats, Table 16): 0.82 * | Phosphatidylcholine (C18:1,C18:2) (m14, male rats, Table 16): 0.74 * | Phosphatidylcholine No 04 (m14, male rats, Table 16): 0.42 * | TAG (C18:1,C18:2) (m14, male rats, Table 16): 0.45 * | Testosterone (m14, male rats, Table 16): 0.06 * | Tyrosine (m14, male rats, Table 16): 1 | 3,4-Dihydroxyphenylacetic acid (DOPAC) (m14, male rats, Table 15d): 0.75 * | 18-Hydroxy-11-deoxycorticosterone (m14, male rats, Table 15d): 0.47 * | Glycerol phosphate, lipid fraction (m14, male rats, Table 15d): 0.24 * | Homovanillic acid (HVA) (m14, male rats, Table 15d): 0.5 * | Kynurenic acid (m14, male rats, Table 15d): 0.8 * | Lysophosphatidylcholine (C18:1) (m14, male rats, Table 15d): 0.82 * | Lysophosphatidylethanolamine (C22:5) (m14, male rats, Table 15d): 0.83 * | Phosphate, lipid fraction (m14, male rats, Table 15d): 0.44 * | Phosphatidylcholine (C18:0,C18:1) (m14, male rats, Table 15d): 0.63 * | Sphingomyelin (d18:1, C16:0) (m14, male rats, Table 15d): 0.22 * | Sphingomyelin (d18:1,C23:0) (m14, male rats, Table 15d): 0.33 * | Sphingomyelin (d18:1,C24:0) (m14, male rats, Table 15d): 0.41 * | Sphingomyelin (d18:2,C18:0) (m14, male rats, Table 15d): 0.26 * | TAG No 02 (m14, male rats, Table 15d): 0.74 * | myo-Inositol, lipid fraction (m14, male rats, Table 15d): 0.29 * | Cholesterol (m14, Table 14b): 0.22 | Choline plasmalogen No 02 (m14, Table 14b): 0.52 | Lignoceric acid (C24:0) (m14, Table 14b): 0.17 | Sphingomyelin (d18:1, C16:0) (m14, Table 14b): 0.22 | Sphingomyelin (d18:2, C16:0) (m14, Table 14b): 0.18 | erythro-Sphingosine (d18:1) (m14, Table 14b): 0.06 | Mannose (m28, male rats): 1.31 * | 3,4-Dihydroxyphenylacetic acid (DOPAC) (m28, male rats, Table 16): 0.54 * | 3,4-Dihydroxyphenylglycol (DOPEG) (m28, male rats, Table 16): 0.72 * | Androstenedione (m28, male rats, Table 16): 0.02 * | Citrate (m28, male rats, Table 16): 1.03 | Glycerol, polar fraction (m28, male rats, Table 16): 0.61 * | Histamine (m28, male rats, Table 16): 0.65 * | Ketoleucine (m28, male rats, Table 16): 0.72 * | Lactate (m28, male rats, Table 16): 0.76 * | Metanephrine (m28, male rats, Table 16): 0.66 * | Pantothenic acid (m28, male rats, Table 16): 0.77 * | Phosphatidylcholine (C18:1,C18:2) (m28, male rats, Table 16): 0.96 | Phosphatidylcholine No 04 (m28, male rats, Table 16): 0.81 * | TAG (C18:1,C18:2) (m28, male rats, Table 16): 1.26 | Testosterone (m28, male rats, Table 16): 0.06 * | Tyrosine (m28, male rats, Table 16): 0.82 * | 3,4-Dihydroxyphenylacetic acid (DOPAC) (m28, male rats, Table 15d): 0.54 * | 18-Hydroxy-11-deoxycorticosterone (m28, male rats, Table 15d): 0.52 * | Glycerol phosphate, lipid fraction (m28, male rats, Table 15d): 0.61 * | Homovanillic acid (HVA) (m28, male rats, Table 15d): 0.49 * | Kynurenic acid (m28, male rats, Table 15d): 0.72 * | Lysophosphatidylcholine (C18:1) (m28, male rats, Table 15d): 0.92 | Lysophosphatidylethanolamine (C22:5) (m28, male rats, Table 15d): 0.8 | Phosphate, lipid fraction (m28, male rats, Table 15d): 0.66 * | Phosphatidylcholine (C18:0,C18:1) (m28, male rats, Table 15d): 0.87 | Sphingomyelin (d18:1, C16:0) (m28, male rats, Table 15d): 0.35 * | Sphingomyelin (d18:1,C23:0) (m28, male rats, Table 15d): 0.55 * | Sphingomyelin (d18:1,C24:0) (m28, male rats, Table 15d): 0.54 * | Sphingomyelin (d18:2,C18:0) (m28, male rats, Table 15d): 0.35 * | TAG No 02 (m28, male rats, Table 15d): 0.51 * | myo-Inositol, lipid fraction (m28, male rats, Table 15d): 0.54 * | Cholesterol (m28, Table 14b): 0.4 | Choline plasmalogen No 02 (m28, Table 14b): 0.55 | Lignoceric acid (C24:0) (m28, Table 14b): 0.35 | Sphingomyelin (d18:1, C16:0) (m28, Table 14b): 0.35 | Sphingomyelin (d18:2, C16:0) (m28, Table 14b): 0.28 | erythro-Sphingosine (d18:1) (m28, Table 14b): 0.21
